Assays:
[1] = system: bleomycin-induced pulmonary fibrosis; assay: Effect on lung morphology following bleomycin-induced pulmonary fibrosis (histology, Masson's Trichrome staining); assay type: in vivo, Male Wistar rats; details: bleomycin 10 U/kg intratracheal; daily oral treatment with 50 mg/kg, days 1-21; lungs removed 21 days after bleomycin; FIG. 1C
Description: (A) Effect of a representative compound on lung morphology following bleomycin-induced pulmonary fibrosis. Bleomycin sulfate (Bleomycin […]) was purchased from a local pharmacy. All experiments were performed in accordance with German guidelines for animal welfare, performed by persons certified to work with animals and approved by the responsible authorities. Male Wistar rats were intratracheally injected with Bleomycin sulfate (10 U/kg body weight in 300 μl saline) or saline alone (saline control) using a catheter (0.5 mm internal diameter, […]) through the nasal passage, following exposure to the anaesthetic Isofluorane for 5 minutes. The following day, the rats were orally treated with Example A (compound (12)) or saline suspended in 1 ml 0.1% Natrosol. Control rats were administered 1 ml 0.1% Natrosol (vehicle control). [table] 21 days following bleomycin instillation, the rats were killed with a lethal intraperitoneal injection of NarcorenTM (Pentobarbital Sodium, Rhone Merieux). The lungs were then removed, blotted dry and half was snap frozen in liquid nitrogen and stored at -80° C. The other half was fixed in 4% formalin for subsequent paraffin embedding and histology. […] Collagen deposition was assessed using Masson's Trichrome staining.

[2] = system: procollagen I gene expression; assay: Expression of fibrotic marker genes following bleomycin-induced pulmonary fibrosis (real time PCR, lung): procollagen I; assay type: in vivo, Male Wistar rats; details: bleomycin 10 U/kg intratracheal; daily oral treatment with 50 mg/kg, days 1-21; lung RNA at day 21; vs bleomycin + vehicle; FIG. 2
Description: (§1) All experiments were performed in accordance with German guidelines for animal welfare, performed by persons certified to work with animals and approved by the responsible authorities. Male Wistar rats were intratracheally injected with Bleomycin sulfate (10 U/kg body weight in 300 μl saline) or saline alone (saline control) using a catheter (0.5 mm internal diameter, […]) through the nasal passage, following exposure to the anaesthetic Isofluorane for 5 minutes. The following day, the rats were orally treated with Example A (compound (12)) or saline suspended in 1 ml 0.1% Natrosol. Control rats were administered 1 ml 0.1% Natrosol (vehicle control).
(§2) 21 days following bleomycin instillation, the rats were killed with a lethal intraperitoneal injection of Narcoren™ (Pentobarbital Sodium, Rhone Merieux). The lungs were then removed, blotted dry and half was snap frozen in liquid nitrogen and stored at −80° C. The other half was fixed in 4% formalin for subsequent paraffin embedding and histology.
(§3) (B) Effect of a representative compound on expression of fibrotic marker genes following bleomycin-induced pulmonary fibrosis.
(§4) One part of the frozen lung tissue dedicated to investigation of gene expression was cut into small pieces using a sterile scalpel blade. […] The concentration of each sample was then measured using a spectrophotometer. […]

[3] = system: fibronectin gene expression; assay: Expression of fibrotic marker genes following bleomycin-induced pulmonary fibrosis (real time PCR, lung): fibronectin; assay type: in vivo, Male Wistar rats; details: bleomycin 10 U/kg intratracheal; daily oral treatment with 50 mg/kg, days 1-21; lung RNA at day 21; vs bleomycin + vehicle; FIG. 3
Description: as §1, §2, §3, §4

| melting point [°C] | SMILES | lung fibrosis (lung morphology, collagen deposition by Masson's Trichrome staining) [1] | expression of fibrotic marker genes: procollagen I (normalized to 18S) [2] | expression of fibrotic marker genes: fibronectin (normalized to 18S) [3] |
| --- | --- | --- | --- | --- |
| 265 to 266 | COC(=O)c1ccc2c(c1)NC(=O)/C2=C(\Nc1ccc(C(=O)N2CCN(C)[C@@H](C)C2)cc1)c1ccccc1 [(60), (S)-3-(Z)-[1-{4-[(3,4-dimethyl-piperazin-1-yl)-carbonyl]-phenylamino}-1-phenyl-methylidene]-6-methoxycarbonyl-2-indolinone] | – | – | – |
| – | COC(=O)c1ccc2c(c1)NC(=O)/C2=C(\Nc1ccc(C(=O)N2CCN(C)CC2)cc1)c1ccccc1 [Example A, methyl 3-(Z)-[1-{4-[(4-methyl-piperazin-1-yl)-carbonyl]-phenylamino}-1-phenyl-methylidene]-2-indolinone-6-carboxylate] | nearly complete reversal of lung fibrosis | significant (p<0.0001) inhibition | significant (p<0.0001) inhibition |
